The values below come from patent US6982260B1, “Quinazolines and their use for inhibiting cyclin-dependent kinase enzymes” (Warner-Lambert Company, priority 1999, dated 2006).

One series deals with neointima formation. As to conditions: intraluminal exposure of a denuded rat carotid artery; cited from earlier work.
The target of the next series is cdc2/cyclinB (Homo sapiens, UniProt P06493). The experiment in a line: cdc2/cyclinB kinase assay (Table 1, CdkB). It counts as biochemical. As to conditions: 32P incorporation into retinoblastoma, 25° C., 15 minutes. Here is the method: (§1) All components except the ATP were added to the wells, and the plate was placed on a plate mixer for 2 minutes. The reaction was begun by addition of [^32P]ATP, and the plate was incubated at 25° C. for 15 minutes. The reaction was terminated by addition of 0.1 mL of 20% TCA. The plate was kept at 4° C. for at least 1 hour to allow the substrate to precipitate. The wells were then washed five times with 0.2 mL of 10% TCA and ^32P incorporation determined with a beta plate counter (Wallac Inc., Gaithersburg, Md.).

The next series addresses cdk2/A (Homo sapiens, UniProt P24941). The series can be described thus: cdk2/A kinase assay. The format is biochemical. The conditions noted are these: 32P incorporation into retinoblastoma, 25° C., 15 minutes; read-out: Cdk2A IC50. As to the method:
as §1

A further series concerns the target cdk2/cyclinE (Homo sapiens, UniProt P24941). The series can be described thus: cdk2/cyclinE kinase assay. It counts as biochemical. As to conditions: 32P incorporation into retinoblastoma, 25° C., 15 minutes; read-out: Cdk2E IC50. Here is the method: as §1
The next series addresses cdk4/D (Homo sapiens, UniProt P11802). The series can be described thus: Cyclin-Dependent Kinase 4 (cdk4) Assay. The format is biochemical. Here is the method:
As noted above, the compounds of this invention are potent inhibitors of cyclin-dependent kinases, and accordingly, are useful in treating and preventing neurodegenerative disorders, atherosclerosis, and other cell proliferative disorders like cancer. […] A typical assay, for instance, measures inhibitory activity against the cyclin D dependent kinase 4 enzyme (cdk4/D). […] The cdk4 assay was carried out as follows.
Cyclin-Dependent Kinase 4 (cdk4) Assay
Enzyme assays for IC50 determinations (Table 1 above) and kinetic evaluation were performed in 96 well filter plates (Millipore MADVN6550). The total volume was 0.1 mL containing a final concentration of 20 mM TRIS (tris[hydroxymethyl]aminomethane), at pH 7.4, 50 mM NaCl, 1 mM dithiothreitol, 10 mM MgCl2, 25 μM ATP containing 0.25 μCi of [^32P]ATP, 20 ng of cdk4, 1 μg of retinoblastoma, and appropriate dilutions of a compound of the present invention. All components except the ATP were added to the wells, and the plate was placed on a plate mixer for 2 minutes. The reaction was started by adding [^32P]ATP and the plate was incubated at 25° C. for 15 minutes. The reaction was terminated by addition of 0.1 mL of 20% trichloroacetic acid (TCA). The plate was kept at 4° C. for at least 1 hour to allow the substrate to precipitate. The wells were then washed five times with 0.2 mL of 10% TCA and ^32P incorporation was determined with a beta plate counter (Wallac Inc., Gaithersburg, Md.).

In series [1] the test system is herpes simplex virus (HSV). As to conditions: cited from earlier work.
Where [2] appears, read: 25 μM ATP, retinoblastoma substrate, 25° C., 15 minutes, read-out: Cdk4 IC50.

Read-outs that look alike come from different tables or passages of the source.

Sequence of cdc2/cyclinB (P06493 whole entry, species assumed): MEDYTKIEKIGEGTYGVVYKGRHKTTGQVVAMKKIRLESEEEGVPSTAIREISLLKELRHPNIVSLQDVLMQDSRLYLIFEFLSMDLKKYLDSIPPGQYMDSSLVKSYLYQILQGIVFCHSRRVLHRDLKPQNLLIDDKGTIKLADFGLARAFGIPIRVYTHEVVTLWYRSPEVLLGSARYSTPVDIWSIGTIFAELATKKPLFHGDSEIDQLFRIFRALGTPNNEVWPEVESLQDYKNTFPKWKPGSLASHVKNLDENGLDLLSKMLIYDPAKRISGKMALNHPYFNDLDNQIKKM
Sequence of cdc2/cyclinB (P14635 whole entry partner, species assumed): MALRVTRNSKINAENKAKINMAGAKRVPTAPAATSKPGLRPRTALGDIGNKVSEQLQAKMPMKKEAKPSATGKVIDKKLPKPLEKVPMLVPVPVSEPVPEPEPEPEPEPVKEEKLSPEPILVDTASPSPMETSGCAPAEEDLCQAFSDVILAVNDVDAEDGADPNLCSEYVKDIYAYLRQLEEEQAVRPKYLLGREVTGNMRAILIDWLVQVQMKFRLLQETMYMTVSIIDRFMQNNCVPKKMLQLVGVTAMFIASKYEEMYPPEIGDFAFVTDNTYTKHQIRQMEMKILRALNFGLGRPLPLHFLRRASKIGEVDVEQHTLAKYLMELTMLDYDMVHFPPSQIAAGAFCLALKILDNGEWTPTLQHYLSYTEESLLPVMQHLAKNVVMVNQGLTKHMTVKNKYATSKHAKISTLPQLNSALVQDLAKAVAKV
Sequence of cdk4/D (P11802 whole entry, species assumed): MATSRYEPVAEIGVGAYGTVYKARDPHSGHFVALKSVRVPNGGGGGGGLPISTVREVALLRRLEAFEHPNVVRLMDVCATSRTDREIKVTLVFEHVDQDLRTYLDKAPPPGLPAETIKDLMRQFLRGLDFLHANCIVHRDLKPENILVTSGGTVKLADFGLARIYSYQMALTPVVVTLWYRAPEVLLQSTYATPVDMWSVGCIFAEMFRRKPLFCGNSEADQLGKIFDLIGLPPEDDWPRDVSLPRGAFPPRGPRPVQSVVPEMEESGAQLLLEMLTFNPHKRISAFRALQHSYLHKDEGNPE
Sequence of cdk4/D (P24385 whole entry partner, species assumed): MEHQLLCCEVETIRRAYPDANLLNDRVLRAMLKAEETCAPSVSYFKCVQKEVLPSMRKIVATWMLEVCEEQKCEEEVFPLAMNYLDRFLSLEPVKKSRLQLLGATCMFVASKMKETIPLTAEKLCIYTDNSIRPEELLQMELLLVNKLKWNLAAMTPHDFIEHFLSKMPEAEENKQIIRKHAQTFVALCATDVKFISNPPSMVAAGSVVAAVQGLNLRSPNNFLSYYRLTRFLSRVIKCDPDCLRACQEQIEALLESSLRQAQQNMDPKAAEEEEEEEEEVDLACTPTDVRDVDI

For the molecule `COc1ccc(CNc2nc(N(CCO)CCO)nc3c2ncn3C(C)C)cc1` [CVT-313], the “inhibition of neointima formation” value with neointima formation is “greater than 80%”.

A word on the IC50: it is the concentration that inhibits the measured activity by half. For orientation: melting point means the temperature of the solid-liquid transition. Turning to `COc1ccc2cnc(Nc3ccc(N4CCC(N)C4)cc3)nc2c1C1CCCC1` (stereo not shown) [Example 41, [4-(3-Amino-pyrrolidin-1-yl)-phenyl]-(8-cyclopentyl-7-methoxy-quinazolin-2-yl)-amine], the melting point is 220 to 221 °C. Moreover, the IC50 against cdc2/cyclinB came out at 398 nM. Moreover, on cdk2/A, the half-maximal inhibitory concentration (IC50) was found to be 203 nM. Besides, the IC50 at cdk2/cyclinE is 950 nM. The molecule further came in with an IC50 against cdk4/D of 116 nM.

`COc1ccc2cnc(Nc3ccc(N4CCOCC4)c(F)c3)nc2c1C1CCCC1` [Example 43, (8-Cyclopentyl-7-methoxy-quinazolin-2-yl)-(3-fluoro-4-morpholin-4-yl-phenyl)-amine] gave a melting point of 252 to 253 °C. The molecule also gave a half-maximal inhibitory concentration (IC50) on cdc2/cyclinB of more than 5000 nM. Further, the half-maximal inhibitory concentration (IC50) at cdk2/A amounted to 966 nM. Further, the 50% inhibitory concentration (IC50) at cdk2/cyclinE is more than 5000 nM. The half-maximal inhibitory concentration (IC50) at cdk4/D (setting [2]) turned out to be 70 nM.

Regarding `COc1ccc2cnc(Nc3ccc(N4CCOCC4)cc3)nc2c1C1CCCC1` [Example 44, (8-Cyclopentyl-7-methoxy-quinazolin-2-yl)-(4-morpholin-4-yl-phenyl)-amine], the melting point was 243 to 244 °C. In addition, the IC50 against cdc2/cyclinB was determined as 1590 nM. The 50% inhibitory concentration (IC50) at cdk2/A came to 383 nM. For the same molecule, the IC50 on cdk2/cyclinE was 650 nM. The half-inhibitory concentration (IC50) against cdk4/D is 18 nM.

Take `COc1ccc2cnc(Nc3ccc(N4CCC(NC(=O)OC(C)(C)C)C4)cc3)nc2c1C1CCCC1` (stereo not shown) [Example 45, {1-[4-(8-Cyclopentyl-7-methoxy-quinazolin-2-ylamino)-phenyl]-pyrrolidin-3-yl}-carbamic Acid Tert-butyl Ester]: the melting point was 157 °C (dec.). The molecule further returned a half-maximal inhibitory concentration (IC50) against cdc2/cyclinB of more than 1700 nM. Besides, the IC50 on cdk2/A is 2390 nM. The 50% inhibitory concentration (IC50) at cdk2/cyclinE worked out at 6900 nM. Moreover, the IC50 on cdk4/D (setting [2]) is 275 nM.

Regarding `COc1ccc2cnc(Nc3ccc(F)c(C)c3)nc2c1C(C)C` [Example 46, (4-Fluoro-3-methyl-phenyl)-(8-isopropyl-7-methoxy-quinazolin-2-yl)-amine], the melting point was 169 to 171 °C. The molecule further showed a 50% inhibitory concentration (IC50) against cdc2/cyclinB of 1200 nM. Moreover, the IC50 at cdk2/A came out at 246 nM. Moreover, the IC50 at cdk2/cyclinE was found to be 1200 nM. Besides, the IC50 on cdk4/D (setting [2]) was found to be 1500 nM.

Molecule `COc1ccc2cnc(Nc3ccc(F)c(C)c3)nc2c1C1CCCC1` [Example 48, (8-Cyclopentyl-7-methoxy-quinazolin-2-yl)-(4-fluoro-3-methyl-phenyl)-amine] returned a melting point of 208 to 209 °C. On cdc2/cyclinB, this molecule had an IC50 of 1170 nM. In addition, on cdk2/A, the half-inhibitory concentration (IC50) worked out at 574 nM. Also, the IC50 on cdk2/cyclinE was determined as 2200 nM. For the same molecule, at cdk4/D (setting [2]), the IC50 came out at 2400 nM.

`COc1ccc2cnc(Nc3ccc(N4CCNCC4)c(F)c3)nc2c1C1CCCC1` [Example 50, (8-Cyclopentyl-7-methoxy-quinazolin-2-yl)-(3-fluoro-4-piperazin-1-yl-phenyl)-amine] had a melting point of 228 to 229 °C. Also, inhibition on cdc2/cyclinB was half-maximal at 214 nM (IC50). For the same molecule, the IC50 on cdk2/A was determined as 62 nM. Also, the IC50 at cdk2/cyclinE worked out at 300 nM. In addition, the IC50 on cdk4/D came out at 4 nM.

With `CC[C@H](CO)Nc1nc(NCc2ccccc2)c2ncn(C(C)C)c2n1` [roscovitine], the HSV replication entry in series [1] is “inhibited”.
